Results on four compounds are retold here after ChEMBL document CHEMBL4433255, “Small-molecule agents for the treatment of inflammatory bowel disease” (Bioorg Med Chem Lett, 2019).

For one assay, the target named is T1, Integrin alpha-4/beta-7 (Homo sapiens, UniProt P13612+P26010).
T1 sequence (P13612 whole entry): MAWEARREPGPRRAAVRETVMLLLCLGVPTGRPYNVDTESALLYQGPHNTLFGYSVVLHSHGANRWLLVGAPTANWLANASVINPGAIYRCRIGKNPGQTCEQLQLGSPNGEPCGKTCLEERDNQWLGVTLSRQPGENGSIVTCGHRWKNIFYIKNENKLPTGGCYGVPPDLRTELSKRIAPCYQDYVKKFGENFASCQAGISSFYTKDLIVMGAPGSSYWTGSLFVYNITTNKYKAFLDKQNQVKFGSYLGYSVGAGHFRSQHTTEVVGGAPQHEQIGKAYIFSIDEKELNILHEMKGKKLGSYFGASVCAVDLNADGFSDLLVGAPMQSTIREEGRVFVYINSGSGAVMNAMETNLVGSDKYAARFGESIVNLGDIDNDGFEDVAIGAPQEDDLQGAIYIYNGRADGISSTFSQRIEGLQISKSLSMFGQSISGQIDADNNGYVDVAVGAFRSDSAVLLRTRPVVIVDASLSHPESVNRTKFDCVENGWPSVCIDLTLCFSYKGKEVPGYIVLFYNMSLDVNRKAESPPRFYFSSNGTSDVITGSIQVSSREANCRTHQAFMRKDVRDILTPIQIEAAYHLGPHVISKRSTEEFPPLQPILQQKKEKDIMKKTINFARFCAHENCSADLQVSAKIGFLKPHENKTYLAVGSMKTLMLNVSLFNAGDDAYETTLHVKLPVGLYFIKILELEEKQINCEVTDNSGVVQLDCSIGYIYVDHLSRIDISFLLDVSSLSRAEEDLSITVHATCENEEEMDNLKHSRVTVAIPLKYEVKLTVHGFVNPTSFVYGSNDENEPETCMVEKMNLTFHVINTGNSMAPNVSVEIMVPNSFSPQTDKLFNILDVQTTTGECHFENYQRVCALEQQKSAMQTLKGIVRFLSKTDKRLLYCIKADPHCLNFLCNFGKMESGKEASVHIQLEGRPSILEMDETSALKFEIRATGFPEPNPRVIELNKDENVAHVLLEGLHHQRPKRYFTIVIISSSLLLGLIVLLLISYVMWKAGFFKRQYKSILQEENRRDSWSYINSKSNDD
T1 sequence (P26010 whole entry): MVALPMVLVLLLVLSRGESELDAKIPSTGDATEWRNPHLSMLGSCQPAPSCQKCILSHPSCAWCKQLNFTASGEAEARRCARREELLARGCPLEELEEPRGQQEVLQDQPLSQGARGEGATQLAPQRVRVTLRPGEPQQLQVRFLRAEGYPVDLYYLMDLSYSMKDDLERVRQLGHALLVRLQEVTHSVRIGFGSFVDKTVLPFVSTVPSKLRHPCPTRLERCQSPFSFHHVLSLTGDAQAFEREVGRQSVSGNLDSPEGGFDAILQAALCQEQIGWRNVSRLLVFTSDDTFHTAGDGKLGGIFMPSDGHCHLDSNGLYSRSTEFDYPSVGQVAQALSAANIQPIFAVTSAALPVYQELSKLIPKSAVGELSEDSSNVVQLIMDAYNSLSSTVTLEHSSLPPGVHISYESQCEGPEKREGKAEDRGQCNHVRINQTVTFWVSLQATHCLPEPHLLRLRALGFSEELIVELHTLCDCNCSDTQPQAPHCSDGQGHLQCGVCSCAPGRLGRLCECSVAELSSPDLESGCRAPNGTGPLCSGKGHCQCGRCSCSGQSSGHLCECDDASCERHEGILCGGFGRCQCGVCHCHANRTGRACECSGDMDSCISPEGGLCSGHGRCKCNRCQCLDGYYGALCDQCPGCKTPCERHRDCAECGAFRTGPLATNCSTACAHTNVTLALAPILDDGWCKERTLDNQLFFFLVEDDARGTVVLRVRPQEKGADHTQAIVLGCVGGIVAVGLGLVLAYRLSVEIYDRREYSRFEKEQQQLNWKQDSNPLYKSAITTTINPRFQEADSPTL
Description: Antagonist activity at integrin alpha4beta7 expressed in human RPMI8866 cells assessed as reduction in cell adhesion to rat MadCAM incubated for 40 to 60 mins by lactate dehydrogenase assay. The assay is classed as cell-based.

The next assay concerns the target Integrin alpha-4/beta-1 (Homo sapiens, UniProt P05556+P13612). Kind of assay: Antagonist activity at integrin alpha4beta1 expressed in human Jurkat cells assessed as reduction in cell adhesion to human VCAM-1 incubated for 40 to 60 mins by lactate dehydrogenase assay. The assay is classed as cell-based.
The subject of a further assay is Mus musculus. Kind of assay: Immunosuppressive activity in BALB/c mouse assessed as inhibition of leukocyte homing to peyer's patches orally dosed by FACS analysis. The class given is functional, organism-based. (A flow cytometer gives signals particle by particle.)
Assay [1] can be described thus: Inhibition of IL-10 deficient BALB/c mouse CD4 positive T-cell migration by immunofluorescence method relative to control. The class given is functional.
The target in assay [2] is Sphingosine 1-phosphate receptor 5 (Homo sapiens, UniProt Q9H228). Description: Agonist activity at S1P5 (unknown origin) assessed as stimulation of [35S]GTPgammaS binding incubated for 120 mins in presence of GDP by TopCount scintillation counting method. The class given is functional.
A further assay concerns Rattus norvegicus. Kind of assay: Antiinflammatory activity in Sprague-Dawley rat model of TNBS-induced colitis assessed as reduction in number of circulating lymphocytes at 0.6 mg/kg, po dosed 2 hrs after TNBS treatment and continued daily for 7 days by gavage and measured up to 24 hrs post treatment relative to control. The assay is classed as functional. Details: scale not given: the % may be the effect or the level left.

Assay [3] can be described thus: Inhibition of recombinant human BCR-JAK1 expressed in mouse Ba/F3 cells assessed as reduction in pSTAT5 level incubated for 30 mins by AlphaScreen assay. The assay is classed as cell-based. The conditions noted are these: BaF3, 0.5 h.
The species named for assay [4] is Homo sapiens. Description: Selectivity ratio of EC50 for recombinant human BCR-JAK1 expressed in mouse Ba/F3 cells to EC50 for recombinant human TEL-JAK2 expressed in mouse Ba/F3 cells. The class given is cell-based.
Assay [5] is filed under the species Homo sapiens. Kind of assay: Selectivity ratio of EC50 for recombinant human BCR-JAK1 expressed in mouse Ba/F3 cells to EC50 for recombinant human TEL-JAK3 expressed in mouse Ba/F3 cells. The class given is cell-based.
The species entered for assay [6] is Homo sapiens. Description: Selectivity ratio of EC50 for recombinant human BCR-JAK1 expressed in mouse Ba/F3 cells to EC50 for recombinant human TEL-TYK2 expressed in mouse Ba/F3 cells. The assay is classed as cell-based.
For another assay, the system named is BaF3. Kind of assay: Inhibition of chemotaxis in mouse BAF3 cells. The assay is classed as functional, cell-based.

pEC50: −log10 of the molar value. Bounds are passed on as bounds.

Sequence of Integrin alpha-4/beta-1 (P05556 whole entry, one chain of several): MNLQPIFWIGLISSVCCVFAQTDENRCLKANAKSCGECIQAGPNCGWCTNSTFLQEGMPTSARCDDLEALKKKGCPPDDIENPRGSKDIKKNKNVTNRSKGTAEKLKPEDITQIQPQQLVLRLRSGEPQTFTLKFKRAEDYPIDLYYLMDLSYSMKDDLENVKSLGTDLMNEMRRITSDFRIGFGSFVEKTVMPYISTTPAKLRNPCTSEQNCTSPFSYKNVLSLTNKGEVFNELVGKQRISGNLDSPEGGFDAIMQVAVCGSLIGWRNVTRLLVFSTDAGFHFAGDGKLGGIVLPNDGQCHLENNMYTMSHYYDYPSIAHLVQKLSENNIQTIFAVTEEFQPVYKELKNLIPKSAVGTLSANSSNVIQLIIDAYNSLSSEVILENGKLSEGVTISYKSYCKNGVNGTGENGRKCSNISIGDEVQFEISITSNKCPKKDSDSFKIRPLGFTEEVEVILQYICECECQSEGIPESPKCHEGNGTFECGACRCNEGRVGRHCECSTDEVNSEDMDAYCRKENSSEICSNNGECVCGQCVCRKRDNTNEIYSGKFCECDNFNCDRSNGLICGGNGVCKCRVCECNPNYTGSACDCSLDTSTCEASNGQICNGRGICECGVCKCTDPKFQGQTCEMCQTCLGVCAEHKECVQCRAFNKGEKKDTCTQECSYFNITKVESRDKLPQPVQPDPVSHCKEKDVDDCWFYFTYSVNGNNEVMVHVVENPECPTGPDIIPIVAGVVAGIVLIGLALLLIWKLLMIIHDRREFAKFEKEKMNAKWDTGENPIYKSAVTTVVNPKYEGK
Sequence of Sphingosine 1-phosphate receptor 5 (Q9H228 whole entry): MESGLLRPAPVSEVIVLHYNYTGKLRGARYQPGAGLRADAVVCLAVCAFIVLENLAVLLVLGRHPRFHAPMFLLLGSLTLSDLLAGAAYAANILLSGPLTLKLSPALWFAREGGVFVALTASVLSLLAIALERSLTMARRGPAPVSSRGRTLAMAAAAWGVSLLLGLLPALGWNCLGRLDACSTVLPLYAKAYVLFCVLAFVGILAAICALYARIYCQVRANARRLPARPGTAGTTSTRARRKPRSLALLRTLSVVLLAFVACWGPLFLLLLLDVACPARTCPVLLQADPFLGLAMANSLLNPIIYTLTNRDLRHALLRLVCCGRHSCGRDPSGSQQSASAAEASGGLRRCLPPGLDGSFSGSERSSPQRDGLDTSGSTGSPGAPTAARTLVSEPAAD

The pEC50 is the EC50 on a negative log10 scale, so that one unit is a factor of ten. Take `CN(C)c1ccc2c(c1)c(=O)n(-c1ccc(C[C@H](NC(=O)c3c(Cl)cccc3Cl)C(=O)O)cc1)c(=O)n2C`: the negative logarithm of the EC50 (pEC50) was 8.85 at Integrin alpha-4/beta-7, 8.27 on Integrin alpha-4/beta-1 and 6.74 in the assay on Mus musculus. In addition, the “inhibition (INH)” value in [1] was more than 95%.

With `CC(C)Oc1ccc(-c2nc(-c3cccc4c3CC[C@@H]4NCCO)no2)cc1C#N` [OZANIMOD], in [2], the negative-log EC50 (pEC50) is 8.37. Further, in the assay with Rattus norvegicus, the Activity is 51%.

Take `CC[C@@H]1CN(C(=O)NCC(F)(F)F)C[C@@H]1c1cnc2cnc3[nH]ccc3n12` [UPADACITINIB]: the negative-log EC50 (pEC50) in [3] was 7.85. The Ratio EC50 is 42 in the assay listed under Homo sapiens [4], 133 in the assay filed under Homo sapiens [5] and 192 in the assay listed under Homo sapiens [6].

As for `CC(C)(C)c1ccc(S(=O)(=O)Nc2ccc(Cl)cc2C(=O)c2cc[n+]([O-])cc2)cc1` [VERCIRNON], in the assay on BaF3, the negative-log EC50 (pEC50) is 8.55.
